Test results from PubChem BioAssay AID2060903 (Molecular Pharmacology Branch, DTP, NCI, 2025).

System: 377384-186-R-J1-PDC complex spheroid viability
Test: Anticancer human tumor 377384-186-R-J1-PDC patient-derived pancreatic carcinoma cell line growth inhibition [RAS]
Conditions: for IC50: curve of first compound; for viability, T/C: stronger effect = lower value
How it was run: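 Tumour cells grown as complex spheroids with HUVEC endothelial cells and mesenchymal stem cells, treated with RAS pathway inhibitor combinations. Each agent spans half-log steps from near clinical Cmax, or 10 microM where Cmax is unknown.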
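Further: spheroids exposed to compounds for seven days before readout.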

Question: What does the source list for `CCN1CCN(Cc2ccc(Nc3ncc(F)c(-c4cc(F)c5nc(C)n(C(C)C)c5c4)n3)nc2)CC1` + CCn1c(-c2cccnc2C(C)OC)c2c3cc(ccc31)N1CCOC(CC(NC(=O)C(C(C)C)N(C)C(=O)C3(F)CCN(C(=O)C#CC(C)(C)N(C)C)CC3)C(=O)N3CCCC(N3)C(=O)OCC(C)(C)C2)C1?
Answer: IC50 (second compound 0.000949 µM): 0.315 µM; IC50 (second compound 0.003 µM): 0.222 µM; IC50 (second compound 0.00949 µM): 0.257 µM; IC50 (second compound 0.03 µM): 0.126 µM; IC50 (second compound 0.0949 µM): 0.178 µM; IC50 (second compound 0.3 µM): 0.0837 µM; viability, T/C (second compound 0.000949 µM, first compound 0.00316 µM): 97%; viability, T/C (second compound 0.000949 µM, first compound 0.01 µM): 75.4%; viability, T/C (second compound 0.000949 µM, first compound 0.0316 µM): 68.4%; viability, T/C (second compound 0.000949 µM, first compound 0.1 µM): 65.8%; viability, T/C (second compound 0.000949 µM, first compound 0.316 µM): 46.6%; viability, T/C (second compound 0.000949 µM, first compound 1 µM): 42%; viability, T/C (second compound 0.003 µM, first compound 0.00316 µM): 96%; viability, T/C (second compound 0.003 µM, first compound 0.01 µM): 78.7%; viability, T/C (second compound 0.003 µM, first compound 0.0316 µM): 75.3%; viability, T/C (second compound 0.003 µM, first compound 0.1 µM): 54.6%; viability, T/C (second compound 0.003 µM, first compound 0.316 µM): 45.8%; viability, T/C (second compound 0.003 µM, first compound 1 µM): 41.3%; viability, T/C (second compound 0.00949 µM, first compound 0.00316 µM): 102%; viability, T/C (second compound 0.00949 µM, first compound 0.01 µM): 93.4%; viability, T/C (second compound 0.00949 µM, first compound 0.0316 µM): 65.2%; viability, T/C (second compound 0.00949 µM, first compound 0.1 µM): 60%; viability, T/C (second compound 0.00949 µM, first compound 0.316 µM): 50.2%; viability, T/C (second compound 0.00949 µM, first compound 1 µM): 43.2%; viability, T/C (second compound 0.03 µM, first compound 0.00316 µM): 81.2%; viability, T/C (second compound 0.03 µM, first compound 0.01 µM): 89.2%; viability, T/C (second compound 0.03 µM, first compound 0.0316 µM): 75.9%; viability, T/C (second compound 0.03 µM, first compound 0.1 µM): 52%; viability, T/C (second compound 0.03 µM, first compound 0.316 µM): 43%; viability, T/C (second compound 0.03 µM, first compound 1 µM): 44.5%; viability, T/C (second compound 0.0949 µM, first compound 0.00316 µM): 85%; viability, T/C (second compound 0.0949 µM, first compound 0.01 µM): 83.3%; viability, T/C (second compound 0.0949 µM, first compound 0.0316 µM): 73.9%; viability, T/C (second compound 0.0949 µM, first compound 0.1 µM): 58.8%; viability, T/C (second compound 0.0949 µM, first compound 0.316 µM): 41.3%; viability, T/C (second compound 0.0949 µM, first compound 1 µM): 34.5%; viability, T/C (second compound 0.3 µM, first compound 0.00316 µM): 75.3%; viability, T/C (second compound 0.3 µM, first compound 0.01 µM): 73%; viability, T/C (second compound 0.3 µM, first compound 0.0316 µM): 64.2%; viability, T/C (second compound 0.3 µM, first compound 0.1 µM): 48.4%; viability, T/C (second compound 0.3 µM, first compound 0.316 µM): 34.5%; viability, T/C (second compound 0.3 µM, first compound 1 µM): 35.3%
